# Laboratory results reported in patent US12059416B2, “Combinations of a H3 antagonist and a noradrenaline reuptake inhibitor, and the therapeutical uses thereof” (BIOPROJET, priority 2018, dated 2024).
# Structures can show the parent of a compound that is named as a salt.
# Tests used:
# [1] = system: noradrenaline release in the prefrontal cortex; test: Noradrenaline release in the prefrontal cortex, in vivo microdialysis; settings: rat prefrontal cortex, oral gavage, maximal increase recorded over 150 min post dosing, mean ± SEM
# From the text: Effects on noradrenaline release in the prefrontal cortex were investigated in vivo by microdialysis in vigil male Wistar rats as described by AD Medhurst et al. (J. Pharmacol. Exp. Ther. 2007, 321, 1032-1045) and G. Flik et al. (J. Mol. Neurosci. 2015, 56, 320-328). Briefly, anaesthetized rats were implanted with a guide cannulae for sampling in the prefrontal cortex. After at least one week of recovery post-surgery, the microdialysis probe was inserted in the guide cannulae and perfused continuously with artificial cerebrospinal fluid (CSF). The rat was habituated to the microdialysis cage for ˜3 hours. Then, rats received orally (gavage) vehicle, drug or drug combination. CSF samples collected every 30 minutes were analysed for their noradrenaline content by HPLC coupled to a electrochemical detection. Noradrenaline sample levels were expressed in percentage of basal noradrenaline release recorded over 1.5 hour before vehicle or drug treatment.
# male Wistar rats = test: Effect on sleep/wake (EEG telemetry) in rats; assay type: in vivo, rat; settings: oral gavage, over 12 hours
# Method: Effects on sleep/wake parameters were investigated in male Wistar rats. Briefly, rats were stereotaxically implanted with cortical electrodes for electroencephalogram (EEG) recording using a telemetric system (Data Sciences Int., Saint Paul, MN, USA) for the acquisition, transfer and storage of motor activity and EEG signals. EEG signals were analysed according to a procedure adapted from the algorithm proposed by R. P. Louis et al. (J. Neurosci. Methods, 2004, 133, 71-80) and the analysis of vigilance stages according to H. Kleinlogel (Neuropsychobiol. 1990-91, 23, 197-204) after a fast Fourier transformation of 8-second duration EEG epochs. This allows the determination for each epoch of its vigilance stage (i.e. active wakefulness, quiet wakefulness, light or deep slow wave sleeps and REM sleep also named paradoxical sleep). Rats received orally (gavage) vehicle, drug or drug combination around 30 minutes before the light onset. Then, EEG signals were continuously recorded and further integrated over the 12-hour diurnal phase.
# Effects on sleep/wake recorded in rats of drugs alone or combined are presented in the FIG. 1 (Pitolisant/duloxetine), FIG. 2 (BP1.3656B/duloxetine), FIG. 3 (pitolisant/reboxetine) and FIG. 4 (pitolisant/atomoxetine): […]
Structure (SMILES),Maximal increase (% of basal noradrenaline release) [1],decrease in the REM sleep (male Wistar rats)
CNCC[C@H](Oc1cccc2ccccc12)c1cccs1 [duloxetine],+113 ± 31%,−23%
"Clc1ccc(CCCOCCCN2CCCCC2)cc1 [pitolisant, monohydrochloride salt of 1-{3-[3-(4-chlorophenyl)propoxy]propyl}piperidine]",+148 ± 49%,does not have any significant effect
